Patent US10344032B2, “Agents for treating neurogenic inflammation and neuropathic hyperalgesia related disorders” (PÉCSI TUDOMÁNYEGYETEM, priority 2014, dated 2019)

Tests used:
[1] = biological target: T1, sst4 receptor (Homo sapiens, UniProt P31391); test: Somatostatin sst4 receptor-coupled G-protein activation assay ([35S]GTPγS binding); format: biochemical; details: 100 nM concentration; membrane fractions of CHO cells stably expressing the sst4 receptor; percentage over specific binding in absence of agonists
T1 construct: expressed in transfected cells
Excerpt: [^35S]GTPγS binding assay is a functional test determining agonist-induced and receptor-mediated G-protein activation which is based on the increase in guanine nucleotide exchange at G-proteins upon agonist stimulation. The interaction of a G protein-coupled receptor (GPCR) with the G protein is the first step in the transduction of the receptor binding signal to the activation of the second-messenger systems. We measured the level of [^35S]-GTPγS bound to the α subunit of G proteins and determined the efficacy of the compounds. Compounds which elicited 200% [^35S]GTPγS binding in nanomolar concentration were considered effective agonist. The examined compounds were added into the medium in 1 nM, 10 nM, 100 nM 1 μM and 10 μM concentrations.
Membrane fractions were prepared from CHO cells stably expressing the sst4 receptor in Tris-EGTA buffer (50 mM Tris-HCl, 1 mM EGTA, 3 mM MgCl2, 100 mM NaCl, pH 7.4). These membrane fractions (˜10 μg of protein/sample) were incubated at 30° C. for 60 min in the same Tris-EGTA buffer containing [^35S]GTPγS (0.05 nM) and increasing concentrations (10^−9 to 10^−5 M) of test compounds in the presence of 30 μM GDP in a final volume of 500 μl. Non-specific binding was determined in the presence of 10 μM unlabelled GTPγS. Total binding was measured in the absence of test compounds. To calculate the specific binding, non-specific binding was subtracted from total binding. The reaction was terminated by filtrating the samples through Whatman GF/B glass fiber filters. Using 48-well Slot Blot Manifold from Cleaver Scientific filters were washed three times with ice-cold 50 mM Tris-HCl buffer (pH 7.4). After drying for 60 min at 37° C., radioactivity was measured in scintillation liquid in a Packard Tri-Carb 2800 TR scintillation counter. Test compound-induced G-protein stimulation was given as percentage over the specific [^35S]GTPγS binding observed in the absence of agonists.

[2] = test system: rat; test: Plantar incision-induced heat allodynia (increasing temperature water bath), postoperative pain model; format: in vivo; details: 100 μg/kg p.o., measured 60 min later; one day after plantar incision
Protocol: Rats were anaesthesized with sodium-pentobarbital (Euthasol, 40 mg/kg i.p.) and a 1 cm longitudinal incision was made through the skin, fascia and muscle of the plantar aspect of the hindpaw. Significant decrease of both the thermonociceptive and mechanonociceptive thresholds (heat and mechanical allodynia) of the paw develops 1 day after this procedure.
One hundred and forty five (145) female Wistar rats (150-250 g) kept in the Animal House of the University of Pecs in a temperature-controlled room provided with a 12-hour light-dark cycle, standard rat chow and water ad libitum were used in this experimental series. […] Touch sensitivity was measured with a dynamic plantar aesthesiometer (DPA) and the thermonociceptive threshold was determined with an increasing temperature water-bath (ITWB) on the same rats (see below). […] Test compounds were administered p.o. and post-dose touch sensitivity and thermonociceptive thresholds were measured 60 min later. […]
b) The thermonociceptive threshold of the paw was determined with an increasing temperature water bath developed and validated in our laboratories in cooperation with Experimetria Ltd. (Budapest, Hungary). […] The controlling unit has a 30° C. starting temperature, heating rate and a display continuously showing the actual bath temperature measured by a thermocouple at the middle position 35 mm below the water level. […]

[3] = Analgesic and anti-inflammatory models shown within the examples; details: in vivo

T1 sequence (P31391 whole entry): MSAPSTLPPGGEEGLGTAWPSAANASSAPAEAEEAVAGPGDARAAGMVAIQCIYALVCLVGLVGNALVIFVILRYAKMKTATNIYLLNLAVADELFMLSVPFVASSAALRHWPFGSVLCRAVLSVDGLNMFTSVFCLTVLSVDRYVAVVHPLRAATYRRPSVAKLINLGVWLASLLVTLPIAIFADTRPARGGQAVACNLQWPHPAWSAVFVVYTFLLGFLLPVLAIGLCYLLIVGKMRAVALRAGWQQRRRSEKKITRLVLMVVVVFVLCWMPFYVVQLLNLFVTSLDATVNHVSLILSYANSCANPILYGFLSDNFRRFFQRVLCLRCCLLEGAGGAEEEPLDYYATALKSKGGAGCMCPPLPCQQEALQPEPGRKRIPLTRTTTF

| [35S]GTPγS binding (G-protein activation) [1] | melting point | SMILES | effectiveness in inhibiting the decrease of the heat threshold [2] | activity in the analgesic and anti-inflammatory models [3] |
| --- | --- | --- | --- | --- |
| 210.67% | 186.9 to 187.7 °C | CC(=O)Nc1ccc(CCNc2ncnc3c2c(C)c(C)n3Cc2ccccc2)cc1 [Example 3, N-{4-[2-(7-Benzyl-5,6-dimethyl-7H-pyrrolo[2,3-d]pyrimidin-4-ylamino)-ethyl]-phenyl}-acetamide] | 18.2% | – |
| – | – | COc1ccc(CCNc2ncnc3c2cc(C)n3Cc2ccc(OC)c(OC)c2)cc1OC [compound (a)] | – | totally inactive |
